Reference: patent US20150290265A1, “COMPOSITION FOR TREATING METABOLIC DISORDERS” (PIRAMAL ENTERPRISES LIMITED, priority 2012, published 2015)

What was measured:
human DGAT-1 enzyme = target: T1, human DGAT-1 enzyme (Homo sapiens, UniProt O75907); assay: hDGAT-1 inhibition assay (microsomes from Sf9 cells, [14C]oleoyl-CoA incorporation); format: biochemical; settings: 50 μg/mL
T1 construct: host or cells: Sf9 insect cells (baculovirus, Bac-to-Bac); microsomal fraction
T1 sequence (O75907 1-488): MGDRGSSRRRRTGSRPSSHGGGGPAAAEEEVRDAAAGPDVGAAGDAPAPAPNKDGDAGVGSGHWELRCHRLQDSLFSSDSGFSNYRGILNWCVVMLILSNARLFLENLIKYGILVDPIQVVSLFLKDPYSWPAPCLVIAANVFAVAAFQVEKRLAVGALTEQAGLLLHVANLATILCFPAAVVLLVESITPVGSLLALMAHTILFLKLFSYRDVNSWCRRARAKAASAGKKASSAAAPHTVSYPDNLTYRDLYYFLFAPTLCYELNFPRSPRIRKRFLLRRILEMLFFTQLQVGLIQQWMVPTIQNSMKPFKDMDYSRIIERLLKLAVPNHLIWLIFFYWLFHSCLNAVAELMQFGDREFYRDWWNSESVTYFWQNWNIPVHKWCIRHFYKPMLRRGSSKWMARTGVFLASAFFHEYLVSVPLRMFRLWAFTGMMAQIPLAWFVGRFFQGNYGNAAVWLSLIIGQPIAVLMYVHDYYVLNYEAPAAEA
Procedure: The DGAT-1 assay was designed using human DGAT-1 enzyme over expressed in Sf9 cell-line as described in the reference, European Journal of Pharmacology, 650, 663-672, 2011, the disclosure of which is incorporated by reference for the teaching of the assay.
Enzyme was diluted to a working concentration of 1 mg/mL in hDGAT-1 assay buffer, 2.5 μL of the working enzyme stock was used in hDGAT-1 assay (final concentration 25 μg/mL).
The test samples were prepared as follows. […] The working stock was prepared in hDGAT-1 assay buffer. 10 μL of working stock was added into 100 μL of assay mixture to obtain the final concentration of extracts at 50 μg/mL.
60 μL of substrate mix (as described above) was added to a total assay volume of 100 μL. The reaction was started by adding 2.5 μg hDGAT-1 containing microsomal protein and was incubated at 37° C. for 10 min. The reaction was stopped by adding 300 μL of alkaline ethanol stop solution mix (AESSM). […] 250 μL of the upper heptane was added into 4 mL of scintillation fluid and measured using a liquid scintillation counter (Packard; 1600CA) as disintegration per min (dpm) counts. The percentage inhibition was calculated with respect to the vehicle.

SCD-1 enzyme = target: T2, SCD-1 enzyme (Rattus norvegicus, UniProt P07308); assay: SCD-1 inhibition assay (rat liver microsomes, 3H2O release); format: biochemical; settings: 50 μg/mL
T2 construct: Male Sprague-Dawley rats (150-175 g) were fasted for two days and then fed on low fat diet for three days to induce SCD-1 activity; from tissue; host or cells: liver microsomes of male Sprague-Dawley rats
T2 sequence (P07308 1-358): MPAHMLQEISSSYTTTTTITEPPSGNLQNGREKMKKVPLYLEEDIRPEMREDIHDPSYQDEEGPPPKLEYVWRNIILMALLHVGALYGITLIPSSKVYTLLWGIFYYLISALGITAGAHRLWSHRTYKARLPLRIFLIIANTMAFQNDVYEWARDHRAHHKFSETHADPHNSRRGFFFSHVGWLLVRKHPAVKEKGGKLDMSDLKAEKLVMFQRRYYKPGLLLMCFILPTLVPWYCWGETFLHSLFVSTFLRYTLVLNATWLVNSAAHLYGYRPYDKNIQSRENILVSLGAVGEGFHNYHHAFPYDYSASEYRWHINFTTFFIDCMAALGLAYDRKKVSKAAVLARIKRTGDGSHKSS
Procedure: The assay was carried out according to the method described in reference, European Journal of Pharmacology, 618, 28-36, 2009, the disclosure of which is incorporated by reference for the teaching of the assay.
The SCD-1 enzyme was prepared from rat liver microsomes as described in PCT Publication Application WO2008/074835A1, the disclosure of which is incorporated herein by reference for the teaching of the assay.
Male Sprague-Dawley rats (150-175 g) were fasted for two days and then fed on low fat diet for three days to induce SCD-1 activity. The rats were then sacrificed and their livers were removed and placed on ice. The livers were finely chopped with scissors and then homogenized using a Polytron homogenizer in a homogenization buffer (150 mM KCl, 250 mM sucrose, 50 mM tris-HCl, pH 7.5, 5 mM EDTA, and 1.5 mM reduced glutathione) at 4° C. The homogenate was centrifuged at 1500×g for 20 min at 4° C. […]
The microsomes (62.5 μg) were treated with the test sample for 15 min. […] The filtrate containing ^3H2O was transferred to scintillation vials containing 4 mL of scintillation fluid and the cpm counts were measured using a liquid scintillation counter. The % inhibition was calculated with reference to the vehicle control.
The dose response was determined at concentrations of 25 μg/mL, 50 μg/mL and 100 μg/mL by serially diluting stock solutions of Extract of Example 2.

[1] = High fat diet (HFD) induced body weight gain study in mice; format: in vivo, C57BL/6J mice; settings: Mean ± S.E.M.
Procedure: Male C57BL/6J mice (in-house; Central Animal Facility, Piramal Healthcare Limited, Goregaon, Mumbai, Maharashtra, India) were acclimatized with HFD (60% Kcal, D12492, Research Diets, USA) for two weeks. […] Orlistat (Biocon, India) was used as the standard drug and was administered orally at a dose of 15 mg/kg body weight, twice daily. A separate group of ten mice was fed a low fat diet (LFD, 10% kcal, D12450B, Research Diet, USA) as a normal control. Vehicle was administered to the HFD and LFD control groups at dose of 10 mL/kg body weight. The treatments were continued for a period of sixty days. Body weight and feed intake were monitored daily. The % change in body weight (% increase in body weight from day 1) and the cumulative feed intake data was calculated. On day sixtyone, blood samples (˜200 μL/mice) were collected in heparinised (50 IU/mL) micro-centrifuge tubes under isoflurane anesthesia. Plasma was separated by centrifugation at 10000 rpm at 4° C. for estimation of various plasma biochemistry parameters. The biochemistry analysis was performed on BS-400 autoanalyzer (Mindray, China). […] All the data was analyzed for statistical significance by one-way ANOVA followed by Dunnet's post-hoc test and values of P<0.05 were considered as significant. […]

activity in the hDGAT-1 inhibition assay (conclusion) (human DGAT-1 enzyme)	inhibition at 50 µg/mL (human DGAT-1 enzyme; Table 1)	activity in the SCD-1 inhibition assay (conclusion) (SCD-1 enzyme)	inhibition at 50 µg/mL (SCD-1 enzyme; Table 3)	Structure (SMILES)	Body weight (g, day 0) ([1]; day 0 (baseline))	Body weight (g, day 60) ([1]; day 60, Extract 500 mg/kg orally once daily, Orlistat 15 mg/kg orally twice daily)
active	85%	active	74.2%	C[C@@H]1O[C@@H](Oc2cc3c(=O)oc4c(O)c(O)cc5c(=O)oc(c2O)c3c45)[C@H](O)[C@H](O)[C@H]1O [The compound 1, Ellagic acid, 4-O-alpha-L-rhamnopyranoside]		
				CCCCCCCCCCC[C@@H](C[C@@H]1OC(=O)[C@H]1CCCCCC)OC(=O)[C@H](CC(C)C)NC=O [Orlistat]	26.4 ± 0.4 g	30.9 ± 0.9 g
